Among the data in BindingDB's records for doi:10.1016/j.bmcl.2005.08.100 (the State University of New Jersey, 2022) are IC50 and Kd values, retold here.

Molecules are shown by their SMILES.

Assay [1] deals with T1, Replicase polyprotein 1ab (Severe acute respiratory syndrome coronavirus 2, UniProt P0DTD1). In words: Inhibition of recombinant SARS-CoV-2 main protease using ATLQAIAS as substrate preincubated for 15 mins by enzymatic assay.
Assay [2] deals with T1, Replicase polyprotein 1ab. As to the kind of experiment: Inhibition of recombinant SARS-CoV-2 papain-like protease using Z-Arg-Leu-Arg-Gly-Gly-AMC as substrate by enzymatic assay.
For assay [3], the target named is T1, Replicase polyprotein 1ab. In words: Inhibition of SARS-CoV-2 papain-like protease using ISG15-Rh as substrate.
The target of assay [4] is T1, Replicase polyprotein 1ab. As to the kind of experiment: Inhibition of N-terminal 3xFlag-His6-tagged SARS-CoV-2 papain-like protease nsp3 (1564 to 1878 residues) expressed in baculovirus infected Sf9 insect cells using Pro3 as substrate by fluorescence based assay.
In assay [5] the target is T1, Replicase polyprotein 1ab. As to the kind of experiment: Binding affinity to CM5 chip immobilized full-length wild-type SARS-CoV-2 papain-like protease (1564 to 1878 residues) expressed in Escherichia coli BL21 (DE3) assessed as dissociation constant incubated for 90 secs by SPR analysis. For orientation: In SPR one partner is held on a chip, and binding of the other changes the refractive index at the surface.

Assay [6] deals with T1, Replicase polyprotein 1ab. In words: Inhibition of SARS-CoV-2 papain-like protease.
Assay [7] has as its target T1, Replicase polyprotein 1ab. In words: Inhibition of SARS-CoV-2 papain-like protease using fluorescent substrate preincubated for 1 hr by fluorescence based assay.
In assay [8] the target is T1, Replicase polyprotein 1ab. In words: Inhibition of SARS-CoV-2 papain-like protease assessed as viral protease-mediated deubiquitination using ubiquitinated substrate incubated for 16 to 18 hrs by fluorescence based assay.
The target in assay [9] is T1, Replicase polyprotein 1ab. As to the kind of experiment: Inhibition of SARS-CoV-2 papain-like protease using RLRGG-AMC as substrate.
The target of assay [10] is T1, Replicase polyprotein 1ab. As to the kind of experiment: Inhibition of SARS-CoV-2 papain-like protease expressed in Escherichia coli BL21 (DE3) using Z-LRGG-AMC/Z-RLRGG-AMC as substrate preincubated for 30 mins by enzymatic assay.
Assay [11] addresses T1, Replicase polyprotein 1ab. In words: Binding affinity to biotin-tagged SARS-CoV-2 papain-like protease expressed in Escherichia coli BL21 (DE3) assessed as dissociation constant incubated for 3 mins by BLI assay.
Assay [12] concerns the target T1, Replicase polyprotein 1ab. In words: Inhibition of 6xHis-tagged SARS-CoV-2 papain-like protease expressed in Escherichia coli BL21 (DE3) using ISG15-FITC as substrate incubated for 30 mins by fluorescence polarization assay. (In general: In fluorescence polarisation assays a small probe gives low polarisation when free and higher when bound to something large.)

The target of assay [13] is T1, Replicase polyprotein 1ab. As to the kind of experiment: Inhibition of C-terminal His-tagged SARS-CoV-2 BetaCoV/Wuhan/WIV04/2019 papain-like protease (1564 to 1876 residues) expressed in Escherichia coli BL21 (DE3) using Dabcyl-FTLRGG/APTKV as substrate preincubated for 1 hr followed by substrate addition measured after 3 hrs by FRET assay.
Assay [14] has as its target T1, Replicase polyprotein 1ab. As to the kind of experiment: Inhibition of SARS-CoV-2 papain-like protease-mediated de-ISGylation.
Assay [15] concerns the target T1, Replicase polyprotein 1ab. In words: Inhibition of TAP-tagged SARS-CoV-2 papain-like protease nsp23.
In assay [16] the target is T1, Replicase polyprotein 1ab. As to the kind of experiment: Inhibition of TAP-tagged SARS-CoV-2 papain-like protease nsp123.

Broadly, the IC50 is the concentration at which inhibition is half-maximal. The term Kd denotes the free concentration of one partner at which half of the binding sites on the other are occupied at equilibrium, for simple one-to-one binding.

On to `CN(Cc1cn(C2C3=C(OC2(C)C)c2ccccc2C(=O)C3=O)nn1)C1=C(Br)C(=O)c2ccccc2C1=O` (stereo unspecified), for which the values for the IC50 in assay [1] and in [2] were 66 µM and 3.1 µM, respectively.

Regarding `OCCc1ccc(O)cc1` [4-(2-Hydroxy-ethyl)-phenol], the midpoint of inhibition in assay [3], the IC50, lay at 6.68 µM.

In turn, `Cc1ccc(NC2=CC(=O)c3sc(C)nc3C2=O)cc1` [5-(N-(4-Methylphenyl)amino)-2-methyl-4,7-dioxobenzothiazole] came in with an IC50 in assay [4] of 0.39 µM.

As for `C[C@H](c1cccc2ccccc12)N1CCC(C(=O)NCc2cc(F)cc(NC(=O)N3CCN(C)CC3)c2)CC1`, the Kd in [5] was determined as 2.6 µM.

In the case of `O=C1c2ccccc2C(=O)c2oc(-c3ccccc3)nc21`, inhibition in [6] was half-maximal at 0.56 µM (IC50).

On to `O=C1c2c(O)cccc2[C@@H]([C@@H]2O[C@H](CO)[C@@H](O)[C@H](O)[C@H]2O)c2cc(CO)cc(O)c21`, for which the IC50 in assay [7] was 16.1 µM; in [8], 17.5 µM.

In turn, `Nc1ccc2cc3ccc(N)cc3nc2c1` [acridine-3,6-diamine] gave a concentration for half-maximal inhibition (IC50) in assay [9] of 1.66 µM.

`C[C@@H](NC(=O)c1ccccc1CCC(=O)NNC(=O)/C(C#N)=C/C1CC1)c1cccc2ccccc12` registered a half-inhibitory concentration (IC50) in [10] greater than 200 µM.

Take `Oc1c(Cl)cc(Cl)c2cccnc12` [AS-229]: the Kd in assay [11] stood at 4.6 µM. Moreover, the half-maximal inhibitory concentration (IC50) in assay [12] is 7.24 µM.

For `CN(Cc1cn(C2C3=C(OC2(C)C)c2ccccc2C(=O)C3=O)nn1)C1=CC(=O)c2ccccc2C1=O` (stereo unspecified), in assay [2], the IC50 was found to be 2.2 µM.

Molecule `O=Cc1ccc(O)cc1` [4-hydroxybenzaldehyde] had an IC50 in assay [3] of 3.99 µM.

The molecule `C[C@H](c1ccccc1Cl)N(C)Cc1cc(O)ccc1Cl` displayed an IC50 in assay [13] of 6.67 µM.

On to `O=C1c2c(O)cccc2[C@H]([C@@H]2O[C@H](CO)[C@@H](O)[C@H](O)[C@H]2O)c2cc(CO)cc(O)c21` [CHEBI:2991], for which the half-inhibitory concentration (IC50) in [7] was 13.2 µM; in assay [8] it was 15.7 µM.

Consider `Nc1nc2nc[nH]c2c(=S)[nH]1`, for which the half-maximal inhibitory concentration (IC50) was determined as 0.1 µM in [14], 1 µM in assay [15] and 0.5 µM in assay [16].

For `O=C1c2ccccc2-c2nc3nnnn3nc21`, inhibition in assay [4] was half-maximal at 0.26 µM (IC50).
